Among the data in ChEMBL document CHEMBL5532762, “Potential of covalently linked tamoxifen hybrids for cancer treatment: recent update” (RSC Med Chem, 2024) are IC50, GI50 and solubility values, retold here.

Data set [1] relates to MCF7. In words: Antiproliferative activity against human MCF7 cells assessed as reduction in cell viability measured after 72 hrs by MTT assay. The class given is functional, cell-based. The settings on record: MCF7, 72 h. On the technique in general: Tetrazolium dyes change colour on reduction, which living cells bring about.
For data set [2], the system named is MCF7. In words: Antiproliferative activity against human MCF7 cells assessed as cell growth inhibition incubated for 72 hrs by MTT assay. The settings on record: MCF7, 72 h.
For data set [3], the system named is MDA-MB-231. Put plainly: Growth inhibition of human MDA-MB-231 cells measured after 48 hrs by SRB assay. The class given is functional. A general note: Sulforhodamine B stains cellular protein and so reports cell mass.
Another data set has as its system SiHa. Put plainly: Growth inhibition of human SiHa cells measured after 48 hrs by SRB assay. The class given is functional.
Data set [4] in a line: Aqueous solubility of the compound. The settings on record: water (aqueous). Format: physicochemical.
A further data set deals with Estrogen receptor beta (Homo sapiens, UniProt Q92731). Put plainly: Inhibition of ERbeta (unknown origin) by renilla luciferase assay.
The test system of data set [5] is MCF7. In words: Antiproliferative activity against human MCF7 cells assessed as reduction in cell growth incubated for 24 hrs by MTT assay. The conditions noted are these: MCF7, 24 h.
Data set [6] concerns MDA-MB-231. In words: Antiproliferative activity against human MDA-MB-231 cells assessed as reduction in cell growth incubated for 24 hrs by MTT assay. The settings on record: MDA-MB-231, 24 h.
For data set [7], the system named is MCF7. Put plainly: Antiproliferative activity against human MCF7 cells assessed as reduction in cell growth measured after 72 hrs by alamar blue analysis. The conditions noted are these: MCF7, 72 h. A general note: Alamar Blue is a resazurin reagent that responds to reducing activity.

Estrogen receptor beta, sequence (Q92731 whole entry): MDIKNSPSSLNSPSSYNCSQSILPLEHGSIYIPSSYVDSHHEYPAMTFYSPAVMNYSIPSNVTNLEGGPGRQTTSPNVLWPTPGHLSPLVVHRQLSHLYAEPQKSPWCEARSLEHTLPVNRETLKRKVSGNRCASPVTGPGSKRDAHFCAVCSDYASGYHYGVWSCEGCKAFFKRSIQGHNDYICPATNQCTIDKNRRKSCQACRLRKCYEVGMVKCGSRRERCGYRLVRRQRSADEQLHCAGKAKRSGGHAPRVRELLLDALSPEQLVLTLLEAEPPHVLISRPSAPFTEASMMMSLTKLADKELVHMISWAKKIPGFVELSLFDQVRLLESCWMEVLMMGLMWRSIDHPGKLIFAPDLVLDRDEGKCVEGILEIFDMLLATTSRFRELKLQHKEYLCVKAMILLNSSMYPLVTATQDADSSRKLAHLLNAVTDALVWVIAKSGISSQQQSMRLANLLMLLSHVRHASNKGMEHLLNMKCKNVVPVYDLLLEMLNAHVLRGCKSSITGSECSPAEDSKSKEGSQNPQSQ

For orientation: IC50 means the concentration at which inhibition is half-maximal. For the compound `CC/C(=C(\c1ccccc1)c1ccc(OCCN(C)CCCCCC(=O)NCCc2c[nH]c3ccc(OC)cc23)cc1)c1ccccc1`, the IC50 in the data set on MCF7 [1] is 80000 nM.

In general, GI50 refers to the concentration at which growth is held to half of that of the control. High values mean lower sensitivity of the cells, low ones greater sensitivity of the cells. Take `CC/C(=C(\c1ccccc1)c1ccc(OCCN(C)C)cc1)c1ccccc1` [TAMOXIFEN]: the concentration for half-maximal inhibition (IC50) in the data set with MCF7 [2] is 12600 nM. This compound came in with a GI50 in the data set with MDA-MB-231 [3] of 240 nM.

As for `c1ccc(/C(Cn2cncn2)=C(/c2ccccc2)c2ccc(OCCN3CCN(c4ncccn4)CC3)cc2)cc1`, in the data set on SiHa, it took 120 nM to inhibit growth by half (GI50).

One may read the solubility as how much of the substance goes into solution per volume. A low value points to little dissolved substance. In data set [4], `CC/C(=C(/c1ccc(OCCN(C)C)cc1)c1ccc(OC(=O)N(C)CCN(C)C(=O)OCc2cc(OC)c(OCC(=O)NCCN)cc2[N+](=O)[O-])cc1)c1ccccc1` registered a solubility of at least 20 µg/mL.

Turning to `c1ccc(/C(Cn2cncn2)=C(/c2ccccc2)c2ccc(OCCN3CCN(c4ccc5c(c4)OCO5)CC3)cc2)cc1`, growth in the data set on MDA-MB-231 [3] was halved (GI50) at 230 nM. Take `CCC(=C(c1ccc(O)cc1)c1ccc(OCCNCCCCCCNC(=O)CCCCCNC(=O)CSc2c(Cl)c(Cl)c(C(=O)O)c(C3=c4cc5c(c(S(=O)(=O)O)c4Oc4c3cc3c(c4S(=O)(=O)O)NC(C)(C)CC3C)=NC(C)(C)CC5C)c2Cl)cc1)c1ccccc1` (centres undefined): inhibition against Estrogen receptor beta was half-maximal at 240000 nM (IC50). On to `COc1ccc(/C=C\c2cc(OC)c(OC)c(OC)c2)cc1O` [COMBRETASTATIN A4], for which the IC50 with MCF7 [5] was 8 nM. On to `CCC(=C(c1ccc(O)cc1)c1ccc(OCCN(C)C(=O)/C(=C/c2ccc(OC)c(O)c2)c2cc(OC)c(OC)c(OC)c2)cc1)c1ccc(O)cc1`, for which the values for the IC50 in the data set with MCF7 [5] and in the data set on MDA-MB-231 [6] were 5 nM and 2480 nM, respectively. Regarding `CC/C(=C(\c1ccc(O)cc1)c1ccc(OCCN(C)C(=O)CCC(=O)Oc2cc(/C=C\c3cc(OC)c(OC)c(OC)c3)ccc2OC)cc1)c1ccccc1`, in the data set on MCF7 [7], the IC50 came to 5.7 nM.

In data set [4], `COc1cc(COc2ccc(/C(=C(\C)c3ccccc3)c3ccc(OCCN(C)C)cc3)cc2)c([N+](=O)[O-])cc1OCC(=O)NCCN` displayed a solubility of at least 20 µg/mL. As to `CC/C(=C(\c1ccccc1)c1ccc(OCCN(C)CCCCC(=O)NCCc2c[nH]c3ccc(OC)cc23)cc1)c1ccccc1`, the IC50 in the data set on MCF7 [1] was determined as 4000 nM. In the case of `CC/C(=C(\c1ccc(O)cc1)c1ccc(OCCNC)cc1)c1ccccc1` [ENDOXIFEN], the IC50 with MCF7 [5] turned out to be 29 nM.
